The target of data set [1] is T1, CD137 (Homo sapiens, UniProt Q07011). Kind of data set: CD137 Biacore (SPR) binding assay. Set-up: purchased R&D systems. The settings on record: biotinylated human CD137, 25° C. Here is the method:
Biacore experiments were performed to determine ka (M^−1s^−1), kd (s^−1), KD (nM) values of heterotandem peptides binding to human CD137 protein. […] The protein was desalted to remove uncoupled biotin using spin columns into PBS.
For analysis of peptide binding, a Biacore T200 or a Biacore 3000 instrument was used with a XanTec CMD500D chip. Streptavidin was immobilized on the chip using standard amine-coupling chemistry at 25° C. with HBS-N (10 mM HEPES, 0.15 M NaCl, pH 7.4) as the running buffer. Briefly, the carboxymethyl dextran surface was activated with a 7 min injection of a 1:1 ratio of 0.4 M 1-ethyl-3-(3-dimethylaminopropyl) carbodiimide hydrochloride (EDC)/0.1 M N-hydroxy succinimide (NHS) at a flow rate of 10 μl/min. For capture of streptavidin, the protein was diluted to 0.2 mg/ml in 10 mM sodium acetate (pH 4.5) and captured by injecting 120 μl of onto the activated chip surface. Residual activated groups were blocked with a 7 min injection of 1 M ethanolamine (pH 8.5) and biotinylated CD137 captured to a level of 270-1500 RU. Buffer was changed to PBS/0.05% Tween 20 and a dilution series of the peptides was prepared in this buffer with a final DMSO concentration of 0.5%. The top peptide concentration was 500 nM with 6 further 2-fold or 3-fold dilutions. The SPR analysis was run at 25° C. at a flow rate of 90 μl/min with 60 seconds association and 900 seconds dissociation. After each cycle a regeneration step (10 μl of 10 mM glycine pH 2) was employed. Data were corrected for DMSO excluded volume effects as needed. All data were double-referenced for blank injections and reference surface using standard processing procedures and data processing and kinetic fitting were performed using Scrubber software, version 2.0c (BioLogic Software). Data were fitted using simple 1:1 binding model allowing for mass transport effects where appropriate.
For orientation: In SPR one partner is held on a chip, and binding of the other changes the refractive index at the surface.

A further data set deals with human EphA2 protein (Homo sapiens, UniProt P29317). Kind of data set: EphA2 Biacore (SPR) binding assay. The settings on record: biotinylated human EphA2, 25° C. Here is the method: Biacore experiments were performed to determine ka (M^−1s^−1), kd (s^−1), KD (nM) values of heterotandem peptides binding to human EphA2 protein.
EphA2 were biotinylated with EZ-Link™ Sulfo-NHS-LC-Biotin for 1 hour in 4 mM sodium acetate, 100 mM NaCl, pH 5.4 with a 3× molar excess of biotin over protein. The degree of labelling was determined using a Fluorescence Biotin Quantification Kit (Thermo) after dialysis of the reaction mixture into PBS. For analysis of peptide binding, a Biacore T200 instrument was used with a XanTec CMD500D chip. Streptavidin was immobilized on the chip using standard amine-coupling chemistry at 25° C. with HBS-N (10 mM HEPES, 0.15 M NaCl, pH 7.4) as the running buffer. Briefly, the carboxymethyl dextran surface was activated with a 7 min injection of a 1:1 ratio of 0.4 M 1-ethyl-3-(3-dimethylaminopropyl) carbodiimide hydrochloride (EDC)/0.1 M N-hydroxy succinimide (NHS) at a flow rate of 10 it/min. For capture of streptavidin, the protein was diluted to 0.2 mg/ml in 10 mM sodium acetate (pH 4.5) and captured by injecting 120 μl onto the activated chip surface. Residual activated groups were blocked with a 7 min injection of 1 M ethanolamine (pH 8.5):HBS-N (1:1). Buffer was changed to PBS/0.05% Tween 20 and biotinylated EphA2 was captured to a level of 500-1500 RU using a dilution of protein to 0.2 μM in buffer. A dilution series of the peptides was prepared in this buffer with a final DMSO concentration of 0.5% with a top peptide concentration was 50 or 100 nM and 6 further 2-fold dilutions. The SPR analysis was run at 25° C. at a flow rate of 90 μl/min with 60 seconds association and 900-1200 seconds dissociation. Data were corrected for DMSO excluded volume effects. All data were double-referenced for blank injections and reference surface using standard processing procedures and data processing and kinetic fitting were performed using Scrubber software, version 2.0c (BioLogic Software). Data were fitted using simple 1:1 binding model allowing for mass transport effects where appropriate.

Data set [2] deals with T1, CD137. Description: CD137 reporter assay, co-culture with EphA2 tumour cells. It counts as cell-based. Details: host or cells: Jurkat reporter cells. To be noted: tumour target EphA2, co-culture with SC-OV-3, 6 h. In a few lines:
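Jurkat CD137 reporter cells co-cultured with tumour cells and serially diluted test articles in RPMI-1640 + 1% FBS, 6 h at 37 °C, 5% CO2. Luminescence read after Bio-Glo; fold change over cells-only background fitted log(agonist) vs response for EC50 (nM) and maximal fold induction.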
On the technique in general: In a reporter assay the amount or activity of a reporter protein is the signal.

Sequence of human EphA2 protein (P29317 24-976): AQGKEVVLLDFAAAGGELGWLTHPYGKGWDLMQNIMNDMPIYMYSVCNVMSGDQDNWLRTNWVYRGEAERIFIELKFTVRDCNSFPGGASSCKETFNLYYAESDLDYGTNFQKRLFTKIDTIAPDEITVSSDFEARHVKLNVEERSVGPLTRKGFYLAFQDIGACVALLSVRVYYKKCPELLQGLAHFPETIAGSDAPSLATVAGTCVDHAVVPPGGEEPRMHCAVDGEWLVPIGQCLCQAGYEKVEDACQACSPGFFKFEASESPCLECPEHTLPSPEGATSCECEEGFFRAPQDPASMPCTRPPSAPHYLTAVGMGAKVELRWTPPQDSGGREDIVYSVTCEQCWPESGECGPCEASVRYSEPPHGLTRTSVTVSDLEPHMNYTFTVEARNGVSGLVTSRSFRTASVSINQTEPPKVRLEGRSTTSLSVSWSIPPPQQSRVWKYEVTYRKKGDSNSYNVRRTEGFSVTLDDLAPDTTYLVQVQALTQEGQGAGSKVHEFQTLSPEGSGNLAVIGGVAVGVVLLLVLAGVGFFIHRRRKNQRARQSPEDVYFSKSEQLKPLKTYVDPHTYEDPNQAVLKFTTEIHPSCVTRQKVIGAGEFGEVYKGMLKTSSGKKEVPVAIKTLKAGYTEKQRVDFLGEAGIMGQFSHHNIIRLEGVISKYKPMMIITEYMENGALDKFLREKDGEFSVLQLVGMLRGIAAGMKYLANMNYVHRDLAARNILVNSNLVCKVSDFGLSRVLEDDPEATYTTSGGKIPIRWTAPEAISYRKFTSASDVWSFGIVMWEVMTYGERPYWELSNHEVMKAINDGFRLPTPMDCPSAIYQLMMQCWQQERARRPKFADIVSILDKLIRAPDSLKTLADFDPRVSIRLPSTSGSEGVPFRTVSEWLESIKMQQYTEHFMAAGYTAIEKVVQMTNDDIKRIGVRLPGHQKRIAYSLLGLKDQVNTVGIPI
T1 sequence (Q07011 24-255): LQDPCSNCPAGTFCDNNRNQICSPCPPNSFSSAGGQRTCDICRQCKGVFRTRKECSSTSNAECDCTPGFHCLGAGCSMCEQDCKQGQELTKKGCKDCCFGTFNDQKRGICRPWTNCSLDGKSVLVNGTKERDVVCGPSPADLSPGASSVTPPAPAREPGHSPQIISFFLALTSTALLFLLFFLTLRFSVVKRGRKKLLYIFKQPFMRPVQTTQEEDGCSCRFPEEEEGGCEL

For the molecule `CCCC[C@@H]1NC(=O)[C@H](Cc2ccc(O)cc2)NC(=O)[C@@H]2CCCN2C(=O)[C@H](CC(=O)O)NC(=O)[C@H](C)NC(=O)[C@H](Cc2ccccc2)NC(=O)[C@@H]2CSCCC(=O)N3CN(CN(C3)C(=O)CCSC[C@@H](C(=O)N[C@@H](CNC(=O)CCc3cn(CCCNC(=O)CN(C)C(=O)CN(C)C(=O)CN(C)C(=O)CN(C)C(=O)CN(C)C(=O)CN(C)C(=O)CN(C)C(=O)CN(C)C(=O)CN(C)C(=O)CN(C)C(=O)CN(C)C(=O)CN(C)C(=O)CN(C)C(=O)CN(C)C(=O)CN(C)C(=O)COCCOCCOCCOCCOCCNC(=O)NCCC(=O)N(C)CC(=O)N(C)CC(=O)N(C)CC(=O)N(C)CC(=O)N(C)CC(=O)N(C)CC(=O)N(C)CC(=O)N(C)CC(=O)N(C)CC(=O)N(C)CC(=O)N[C@@H](C)C(=O)N[C@@H](CCCCNC(=N)N)C(=O)N[C@@H](CC(=O)O)C(=O)N[C@H]4CSCCC(=O)N5CN6CN(C5)C(=O)CCSC[C@H](NC(=O)[C@H](CC(C)C)NC(=O)[C@@H]5CCCN5C(=O)[C@H](CC(N)=O)NC(=O)[C@H](C(C)C)NC(=O)[C@H](CC(C)C)NC(=O)[C@@H]5C[C@@H](O)CN5C4=O)C(=O)N[C@@H](CC(C)C)C(=O)N[C@@H](Cc4c[nH]cn4)C(=O)N4CCC[C@H]4C(=O)N[C@H](CC(=O)O)C(=O)N[C@@H](Cc4c[nH]c5ccccc45)C(=O)N[C@@H](CCCCNC(=N)N)C(=O)N[C@H](C(N)=O)CSCCC6=O)nn3)C(N)=O)NC1=O)C(=O)CCSC[C@H](NC(=O)[C@H](C)NC(C)=O)C(=O)N[C@@H]([C@@H](C)CC)C(=O)N[C@@H](CCC(=O)O)C(=O)N[C@@H](CCC(=O)O)C(=O)NCC(=O)N[C@@H](CCC(N)=O)C(=O)N[C@@H](Cc1ccc(O)cc1)C(=O)N2` [BCY9657], the Kd (usually a measure of binding affinity in units of concentration) at CD137 [1] came to 256 nM. The molecule also came in with a Kd on human EphA2 protein of 1.1 nM. In addition, on CD137 [2], the response was half-maximal at 9 nM (EC50) and the “Fold Induction over Background” value came out at 26 fold.
On to `CCCC[C@@H]1NC(=O)[C@H](Cc2ccc(O)cc2)NC(=O)[C@@H]2CCCN2C(=O)[C@H](CC(=O)O)NC(=O)[C@H](C)NC(=O)[C@H](Cc2ccccc2)NC(=O)[C@@H]2CSCCC(=O)N3CN(CN(C3)C(=O)CCSC[C@@H](C(=O)N[C@@H](CNC(=O)CCc3cn(CCCNC(=O)CN(C)C(=O)CN(C)C(=O)CN(C)C(=O)CN(C)C(=O)CN(C)C(=O)COCCOCCOCCOCCOCCNC(=O)NCCC(=O)N(C)CC(=O)N(C)CC(=O)N(C)CC(=O)N(C)CC(=O)N(C)CC(=O)N(C)CC(=O)N(C)CC(=O)N(C)CC(=O)N(C)CC(=O)N(C)CC(=O)N[C@@H](C)C(=O)N[C@@H](CCCCNC(=N)N)C(=O)N[C@@H](CC(=O)O)C(=O)N[C@H]4CSCCC(=O)N5CN6CN(C5)C(=O)CCSC[C@H](NC(=O)[C@H](CC(C)C)NC(=O)[C@@H]5CCCN5C(=O)[C@H](CC(N)=O)NC(=O)[C@H](C(C)C)NC(=O)[C@H](CC(C)C)NC(=O)[C@@H]5C[C@@H](O)CN5C4=O)C(=O)N[C@@H](CC(C)C)C(=O)N[C@@H](Cc4c[nH]cn4)C(=O)N4CCC[C@H]4C(=O)N[C@H](CC(=O)O)C(=O)N[C@@H](Cc4c[nH]c5ccccc45)C(=O)N[C@@H](CCCCNC(=N)N)C(=O)N[C@H](C(N)=O)CSCCC6=O)nn3)C(N)=O)NC1=O)C(=O)CCSC[C@H](NC(=O)[C@H](C)NC(C)=O)C(=O)N[C@@H]([C@@H](C)CC)C(=O)N[C@@H](CCC(=O)O)C(=O)N[C@@H](CCC(=O)O)C(=O)NCC(=O)N[C@@H](CCC(N)=O)C(=O)N[C@@H](Cc1ccc(O)cc1)C(=O)N2` [BCY9658], for which binding on CD137 [1] was put at a Kd of 152 nM. Moreover, on human EphA2 protein, binding was characterised by a dissociation constant (Kd) of 1.9 nM. At CD137 [2], the midpoint of the response, the EC50, lay at 6.2 nM and the “Fold Induction over Background” value stood at 11 fold.
The molecule `CCCC[C@@H]1NC(=O)[C@H](Cc2ccc(O)cc2)NC(=O)[C@@H]2CCCN2C(=O)[C@H](CC(=O)O)NC(=O)[C@H](C)NC(=O)[C@H](Cc2ccccc2)NC(=O)[C@@H]2CSCCC(=O)N3CN(CN(C3)C(=O)CCSC[C@@H](C(=O)N[C@@H](CNC(=O)CCc3cn(CCOCCOCCOCCOCCOCCNC(=O)NCCC(=O)N(C)CC(=O)N(C)CC(=O)N(C)CC(=O)N(C)CC(=O)N(C)CC(=O)N(C)CC(=O)N(C)CC(=O)N(C)CC(=O)N(C)CC(=O)N(C)CC(=O)N[C@@H](C)C(=O)N[C@@H](CCCCNC(=N)N)C(=O)N[C@@H](CC(=O)O)C(=O)N[C@H]4CSCCC(=O)N5CN6CN(C5)C(=O)CCSC[C@H](NC(=O)[C@H](CC(C)C)NC(=O)[C@@H]5CCCN5C(=O)[C@H](CC(N)=O)NC(=O)[C@H](C(C)C)NC(=O)[C@H](CC(C)C)NC(=O)[C@@H]5C[C@@H](O)CN5C4=O)C(=O)N[C@@H](CC(C)C)C(=O)N[C@@H](Cc4c[nH]cn4)C(=O)N4CCC[C@H]4C(=O)N[C@H](CC(=O)O)C(=O)N[C@@H](Cc4c[nH]c5ccccc45)C(=O)N[C@@H](CCCCNC(=N)N)C(=O)N[C@H](C(N)=O)CSCCC6=O)nn3)C(N)=O)NC1=O)C(=O)CCSC[C@H](NC(=O)[C@H](C)NC(C)=O)C(=O)N[C@@H]([C@@H](C)CC)C(=O)N[C@@H](CCC(=O)O)C(=O)N[C@@H](CCC(=O)O)C(=O)NCC(=O)N[C@@H](CCC(N)=O)C(=O)N[C@@H](Cc1ccc(O)cc1)C(=O)N2` [BCY9659] gave a Kd on CD137 [1] of 88.1 nM. The molecule also showed a dissociation constant (Kd) at human EphA2 protein of 1.03 nM. Moreover, on CD137 [2], the EC50 (commonly the concentration at which the effect is half-maximal) was 9.9 nM and the “Fold Induction over Background” value stood at 7 fold.

For the origin of these results see US11453703B2, “Heterotandem bicyclic peptide complexes” (BicycleTX Limited, priority 2018, dated 2022).
